Test results: ChEMBL document CHEMBL1201861, “Genomics of Drug Sensitity in Cancer screening data, Wellcome Trust Sanger Institute”

What was measured:
Caov-3 cell line = experiment: cells; assay type: functional, cell-based; details: Homo sapiens;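 note: cell growth inhibition read out by a viability assay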
Description: SANGER: Inhibition of human Caov-3 cell growth in a cell viability assay.

Capan-2 = experiment: cells; assay type: functional, cell-based; details: Homo sapiens;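 note: Capan-2 cell growth inhibition, read out with a viability assay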
Description: SANGER: Inhibition of human Capan-2 cell growth in a cell viability assay.

EFE-184 = experiment: cells; assay type: functional, cell-based; details: Homo sapiens
Description: SANGER: Inhibition of human EFE-184 cell growth in a cell viability assay.

EGI-1 = experiment: cells; assay type: functional, cell-based; details: Homo sapiens;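 note: cell viability readout used to gauge growth inhibition of EGI-1 cells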
Description: SANGER: Inhibition of human EGI-1 cell growth in a cell viability assay.

EHEB = experiment: cells; assay type: functional, cell-based; details: Homo sapiens;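 note: growth inhibition of human EHEB cells, read out with a cell viability assay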
Description: SANGER: Inhibition of human EHEB cell growth in a cell viability assay.

GCT = experiment: cells; assay type: functional, cell-based; details: Homo sapiens;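 note: GCT cell line proliferation inhibition, read out with a cell viability assay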
Description: SANGER: Inhibition of human GCT cell growth in a cell viability assay.

HCC70 = experiment: cells; assay type: functional, cell-based; details: Homo sapiens;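 note: cell viability assay measuring how strongly the compound suppresses proliferation of HCC70 cells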
Description: SANGER: Inhibition of human HCC70 cell growth in a cell viability assay.

HN = experiment: cells; assay type: functional, cell-based; details: Homo sapiens
Description: SANGER: Inhibition of human HN cell growth in a cell viability assay.

IM-9 = experiment: SANGER: Inhibition of human IM-9 cell growth in a cell viability assay.; assay type: functional, cell-based; details: Homo sapiens, IM-9
IMR-5 = experiment: cells; assay type: functional, cell-based, Homo sapiens; details: Homo sapiens, IMR-5; read-out: IC50;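 note: growth inhibition of human IMR-5 cells, read out with a cell viability assay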
Description: SANGER: Inhibition of human IMR-5 cell growth in a cell viability assay.

IPC-298 = experiment: SANGER: Inhibition of human IPC-298 cell growth in a cell viability assay.; assay type: functional, cell-based
KP-4 = experiment: cells; assay type: functional, cell-based; details: Homo sapiens;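 note: human KP-4 cells, with growth inhibition read out through a cell viability assay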
Description: SANGER: Inhibition of human KP-4 cell growth in a cell viability assay.

LC-1F = experiment: cells; assay type: functional, cell-based, Homo sapiens; details: Homo sapiens, LC-1F;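 note: growth inhibition of human LC-1F cells, read out with a cell viability assay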
Description: SANGER: Inhibition of human LC-1F cell growth in a cell viability assay.

LoVo = experiment: cells; assay type: functional, cell-based; details: Homo sapiens;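 note: growth inhibition of human LoVo cells, read out with a cell viability assay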
Description: SANGER: Inhibition of human LoVo cell growth in a cell viability assay.

M059J = experiment: cells; assay type: functional, cell-based; details: Homo sapiens;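 note: growth inhibition of M059J cells, read out with a cell viability assay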
Description: SANGER: Inhibition of human M059J cell growth in a cell viability assay.

MDA-MB-134-VI = experiment: cells; assay type: functional, cell-based, Homo sapiens; details: Homo sapiens, MDA-MB-134-VI
Description: SANGER: Inhibition of human MDA-MB-134-VI cell growth in a cell viability assay.

MFE-296 = experiment: SANGER: Inhibition of human MFE-296 cell growth in a cell viability assay.; assay type: functional, cell-based
MKN-45 = experiment: cells; assay type: functional, cell-based; details: Homo sapiens;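 note: growth inhibition of human MKN-45 cells, measured with a cell viability assay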
Description: SANGER: Inhibition of human MKN45 cell growth in a cell viability assay.

NB12 = experiment: cells; assay type: functional, cell-based; details: Homo sapiens;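 note: growth inhibition of human NB12 cells, read out by a cell viability assay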
Description: SANGER: Inhibition of human NB12 cell growth in a cell viability assay.

NCI-H1563 = experiment: cells; assay type: functional, cell-based; details: Homo sapiens;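 note: growth inhibition of human NCI-H1563 cells, read out with a cell viability assay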
Description: SANGER: Inhibition of human NCI-H1563 cell growth in a cell viability assay.

NCI-H1623 = experiment: cells; assay type: functional, cell-based; details: Homo sapiens;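 note: cell viability assay used as the read-out for growth inhibition of NCI-H1623 cells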
Description: SANGER: Inhibition of human NCI-H1623 cell growth in a cell viability assay.

NCI-H1882 = experiment: cells; assay type: functional, cell-based, Homo sapiens; details: Homo sapiens, NCI-H1882;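 note: growth inhibition of the cell line, determined with a viability assay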
Description: SANGER: Inhibition of human NCI-H1882 cell growth in a cell viability assay.

NCI-H2030 = experiment: cells; assay type: functional, cell-based; details: Homo sapiens;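 note: growth inhibition of human NCI-H2030 cells, read out by a cell viability assay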
Description: SANGER: Inhibition of human NCI-H2030 cell growth in a cell viability assay.

NCI-H2342 = experiment: cells; assay type: functional, cell-based; details: Homo sapiens;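 note: growth inhibition of the cancer cell line, determined with a cell viability assay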
Description: SANGER: Inhibition of human NCI-H2342 cell growth in a cell viability assay.

NCI-H28 = experiment: cells; assay type: functional, cell-based; details: Homo sapiens;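 note: growth inhibition of human NCI-H28 cells, read out as cell viability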
Description: SANGER: Inhibition of human NCI-H28 cell growth in a cell viability assay.

OE19 = experiment: cells; assay type: functional, cell-based; details: Homo sapiens;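 note: growth inhibition of OE19 cells, measured through a cell viability read-out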
Description: SANGER: Inhibition of human OE19 cell growth in a cell viability assay.

RERF-LC-MS = experiment: cells; assay type: functional, cell-based; details: Homo sapiens;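 note: growth inhibition of human RERF-LC-MS cells, read out by a cell viability assay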
Description: SANGER: Inhibition of human RERF-LC-MS cell growth in a cell viability assay.

RT-4 = experiment: SANGER: Inhibition of human RT4 cell growth in a cell viability assay.; assay type: functional, cell-based
SIMA = experiment: cells; assay type: functional, cell-based, Homo sapiens; details: Homo sapiens, SIMA;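 note: growth inhibition of SIMA cells, measured with a cell viability readout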
Description: SANGER: Inhibition of human SIMA cell growth in a cell viability assay.

SK-HEP1 = experiment: cells; assay type: functional, cell-based, SK-HEP-1; details: Homo sapiens;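 note: cell viability readout used to quantify reduction in proliferation of human SK-HEP-1 cells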
Description: SANGER: Inhibition of human SK-HEP-1 cell growth in a cell viability assay.

SNG-M = experiment: cells; assay type: functional, cell-based; details: Homo sapiens
Description: SANGER: Inhibition of human SNG-M cell growth in a cell viability assay.

SNU-387 = experiment: cells; assay type: functional, cell-based; details: Homo sapiens
Description: SANGER: Inhibition of human SNU-387 cell growth in a cell viability assay.

SNU-449 = experiment: cells; assay type: functional, cell-based; details: Homo sapiens
Description: SANGER: Inhibition of human SNU-449 cell growth in a cell viability assay.

SR = experiment: cells; assay type: functional, cell-based, Homo sapiens; details: Homo sapiens, SR
Description: SANGER: Inhibition of human SR cell growth in a cell viability assay.

SW1088 = experiment: cells; assay type: functional, cell-based; details: Homo sapiens;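 note: growth inhibition of human SW1088 cells, read out by a cell viability assay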
Description: SANGER: Inhibition of human SW1088 cell growth in a cell viability assay.

T84 = experiment: cells; assay type: functional, cell-based; details: Homo sapiens;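 note: growth inhibition measured with a cell viability readout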
Description: SANGER: Inhibition of human T84 cell growth in a cell viability assay.

BHY = experiment: cells; assay type: functional, cell-based; details: Homo sapiens;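 note: cell growth inhibition read out by a viability assay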
Description: SANGER: Inhibition of human BHY cell growth in a cell viability assay.

C3A = experiment: cells; assay type: functional, cell-based; details: Homo sapiens;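 note: growth inhibition of C3A human cells, quantified with a cell viability readout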
Description: SANGER: Inhibition of human C3A cell growth in a cell viability assay.

CAL-27 = experiment: cells; assay type: functional, cell-based; details: Homo sapiens;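 note: Viability-based readout, IC50 reflecting inhibition of CAL-27 cell growth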
Description: SANGER: Inhibition of human CAL-27 cell growth in a cell viability assay.

U-698-M = experiment: cells; assay type: functional, cell-based, Homo sapiens; details: Homo sapiens, U-698-M
Description: SANGER: Inhibition of human U-698-M cell growth in a cell viability assay.

U-251 = experiment: cells; assay type: functional, cell-based; details: Homo sapiens;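 note: growth inhibition of human U-251 cells, read out through a cell viability assay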
Description: SANGER: Inhibition of human U251 cell growth in a cell viability assay.

CAMA-1 = experiment: cells; assay type: functional, cell-based; details: Homo sapiens;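 note: growth inhibition of CAMA-1 cells, read out with a cell viability assay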
Description: SANGER: Inhibition of human CAMA-1 cell growth in a cell viability assay.

CESS = experiment: SANGER: Inhibition of human CESS cell growth in a cell viability assay.; assay type: functional, cell-based; details: Homo sapiens, CESS
CMK = experiment: cells; assay type: functional, cell-based, Homo sapiens; details: Homo sapiens, CMK;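 note: growth inhibition of CMK cells, read out as cell viability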
Description: SANGER: Inhibition of human CMK cell growth in a cell viability assay.

COc1ccc(-c2cc3nccn3c(Nc3ncccc3C(N)=O)n2)cc1OC
IC50 (Caov-3 cell line): > 8 µM | IC50 (Capan-2): > 8 µM | IC50 (EFE-184): > 8 µM | IC50 (EGI-1): > 8 µM | IC50 (EHEB): 3.79 µM | IC50 (GCT): 0.799 µM | IC50 (HCC70): 1.93 µM | IC50 (HN): > 8 µM | IC50 (IM-9): > 8 µM | IC50 (IMR-5): 6.08 µM | IC50 (IPC-298): > 8 µM | IC50 (KP-4): > 8 µM | IC50 (LC-1F): > 8 µM | IC50 (LoVo): 2.61 µM | IC50 (M059J): 2.84 µM | IC50 (MDA-MB-134-VI): > 8 µM | IC50 (MFE-296): > 8 µM | IC50 (MKN-45): > 8 µM | IC50 (NB12): > 8 µM | IC50 (NCI-H1563): > 8 µM | IC50 (NCI-H1623): > 8 µM | IC50 (NCI-H1882): > 8 µM | IC50 (NCI-H2030): 6.25 µM | IC50 (NCI-H2342): 1.82 µM | IC50 (NCI-H28): > 8 µM | IC50 (OE19): > 8 µM | IC50 (RERF-LC-MS): > 8 µM | IC50 (RT-4): 6.56 µM | IC50 (SIMA): 7.18 µM | IC50 (SK-HEP1): 1.82 µM | IC50 (SNG-M): 2.26 µM | IC50 (SNU-387): 2.9 µM | IC50 (SNU-449): > 8 µM | IC50 (SR): 0.548 µM | IC50 (SW1088): > 8 µM | IC50 (T84): 3.23 µM | IC50 (BHY): 2.81 µM | IC50 (C3A): 6.53 µM | IC50 (CAL-27): 4.59 µM | IC50 (U-698-M): 1.02 µM | IC50 (U-251): > 8 µM | IC50 (CAMA-1): > 8 µM | IC50 (CESS): 1.45 µM | IC50 (CMK): 0.682 µM

OC[C@H](Cc1ccccc1)Nc1nc(Oc2ccc3c(c2)CCC3)nc2c1ncn2Cc1ccc(-c2ccccc2)cc1
IC50 (Caov-3 cell line): > 10.2 µM | IC50 (Capan-2): > 10.2 µM | IC50 (EFE-184): > 10.2 µM | IC50 (EGI-1): > 10.2 µM | IC50 (EHEB): > 10.2 µM | IC50 (GCT): > 10.2 µM | IC50 (HCC70): > 10.2 µM | IC50 (HN): 8.17 µM | IC50 (IM-9): > 10.2 µM | IC50 (IMR-5): 3.1 µM | IC50 (IPC-298): > 10.2 µM | IC50 (KP-4): > 10.2 µM | IC50 (LC-1F): > 10.2 µM | IC50 (LoVo): 4.56 µM | IC50 (M059J): > 10.2 µM | IC50 (MDA-MB-134-VI): > 10.2 µM | IC50 (MFE-296): > 10.2 µM | IC50 (MKN-45): > 10.2 µM | IC50 (NB12): > 10.2 µM | IC50 (NCI-H1563): > 10.2 µM | IC50 (NCI-H1623): > 10.2 µM | IC50 (NCI-H1882): > 10.2 µM | IC50 (NCI-H2030): 5.25 µM | IC50 (NCI-H2342): 3.72 µM | IC50 (NCI-H28): > 10.2 µM | IC50 (OE19): > 10.2 µM | IC50 (RERF-LC-MS): > 10.2 µM | IC50 (RT-4): > 10.2 µM | IC50 (SIMA): > 10.2 µM | IC50 (SK-HEP1): 10.1 µM | IC50 (SNG-M): 5.93 µM | IC50 (SNU-387): > 10.2 µM | IC50 (SNU-449): 1.09 µM | IC50 (SR): > 10.2 µM | IC50 (SW1088): > 10.2 µM | IC50 (T84): > 10.2 µM | IC50 (BHY): 5.13 µM | IC50 (C3A): > 10.2 µM | IC50 (CAL-27): > 10.2 µM | IC50 (U-698-M): > 10.2 µM | IC50 (U-251): > 10.2 µM | IC50 (CAMA-1): 9.65 µM | IC50 (CESS): > 10.2 µM | IC50 (CMK): > 10.2 µM

CCCCCCCCCCCC1=C(O)C(=O)C=C(O)C1=O [EMBELIN]
IC50 (Caov-3 cell line): > 32 µM | IC50 (Capan-2): 18.3 µM | IC50 (EFE-184): 26.1 µM | IC50 (EGI-1): 23.1 µM | IC50 (EHEB): > 32 µM | IC50 (GCT): > 32 µM | IC50 (HCC70): > 32 µM | IC50 (HN): 24.8 µM | IC50 (IM-9): > 32 µM | IC50 (IMR-5): > 32 µM | IC50 (IPC-298): 13.4 µM | IC50 (KP-4): > 32 µM | IC50 (LC-1F): 31.2 µM | IC50 (LoVo): 3.87 µM | IC50 (M059J): 13.1 µM | IC50 (MDA-MB-134-VI): > 32 µM | IC50 (MFE-296): 14.4 µM | IC50 (MKN-45): 7.98 µM | IC50 (NB12): 8.23 µM | IC50 (NCI-H1563): > 32 µM | IC50 (NCI-H1623): 25.4 µM | IC50 (NCI-H1882): > 32 µM | IC50 (NCI-H2030): 12.7 µM | IC50 (NCI-H2342): 6.99 µM | IC50 (NCI-H28): 26 µM | IC50 (OE19): 29.7 µM | IC50 (RERF-LC-MS): 30.6 µM | IC50 (RT-4): > 32 µM | IC50 (SIMA): 6.37 µM | IC50 (SK-HEP1): 9.58 µM | IC50 (SNG-M): 7.05 µM | IC50 (SNU-387): 27.2 µM | IC50 (SNU-449): 16.5 µM | IC50 (SR): 28.2 µM | IC50 (SW1088): 16.7 µM | IC50 (T84): 9.87 µM | IC50 (BHY): 6.03 µM | IC50 (C3A): 15.4 µM | IC50 (CAL-27): 13.1 µM | IC50 (U-698-M): 25.2 µM | IC50 (U-251): 9.69 µM | IC50 (CAMA-1): 7.09 µM | IC50 (CESS): 6.24 µM | IC50 (CMK): 10.7 µM

C/C(=C\c1csc(C)n1)[C@@H]1C[C@@H]2O[C@]2(C)CCC[C@H](C)[C@H](O)[C@@H](C)C(=O)C(C)(C)[C@@H](O)CC(=O)O1 [PATUPILONE]
IC50 (Caov-3 cell line): 0.0139 µM | IC50 (Capan-2): 0.03 µM | IC50 (EFE-184): > 0.032 µM | IC50 (EGI-1): > 0.032 µM | IC50 (EHEB): 0.0289 µM | IC50 (GCT): 0.00661 µM | IC50 (HCC70): 0.00479 µM | IC50 (HN): > 0.032 µM | IC50 (IM-9): > 0.032 µM | IC50 (IMR-5): 0.00951 µM | IC50 (IPC-298): 0.0221 µM | IC50 (KP-4): 0.000682 µM | IC50 (LC-1F): > 0.032 µM | IC50 (LoVo): 0.00185 µM | IC50 (M059J): 0.00134 µM | IC50 (MDA-MB-134-VI): > 0.032 µM | IC50 (MFE-296): 0.00268 µM | IC50 (MKN-45): 0.00438 µM | IC50 (NB12): > 0.032 µM | IC50 (NCI-H1563): > 0.032 µM | IC50 (NCI-H1623): 0.0169 µM | IC50 (NCI-H1882): > 0.032 µM | IC50 (NCI-H2030): 0.000699 µM | IC50 (NCI-H2342): 0.000577 µM | IC50 (NCI-H28): 0.022 µM | IC50 (OE19): 0.00466 µM | IC50 (RERF-LC-MS): 0.0245 µM | IC50 (RT-4): > 0.032 µM | IC50 (SIMA): 0.0191 µM | IC50 (SK-HEP1): 0.00111 µM | IC50 (SNG-M): 0.000571 µM | IC50 (SNU-387): 0.00566 µM | IC50 (SNU-449): 0.00191 µM | IC50 (SR): 0.00365 µM | IC50 (SW1088): 0.00579 µM | IC50 (T84): 0.00024 µM | IC50 (BHY): 0.000195 µM | IC50 (C3A): 0.00342 µM | IC50 (CAL-27): 0.00139 µM | IC50 (U-698-M): 0.00776 µM | IC50 (U-251): 0.0108 µM | IC50 (CAMA-1): 0.0129 µM | IC50 (CESS): 0.00338 µM | IC50 (CMK): 0.00133 µM
